Test [1] concerns the target ERK1 (Homo sapiens, UniProt P27361). In words: ERK1 and 2 Enzymatic Inhibition Assay (ERK1). Type of test: biochemical. Particulars: 10 assay concentrations 2×10^−6 M to 6×10^−11 M, 1% DMSO. As to the method:
(§1) ERK1 and 2 Enzymatic Inhibition Assay
(§2) For the Ki determination assay, 200 μM stock solutions of compounds were subjected to a serial, semi-logarithmic dilution using 100% DMSO as a solvent. 10 distinct concentrations were prepared, with a dilution endpoint of 6×10^−9 M in 100% DMSO. 100% DMSO was used as a control. 10 μL from each of the serial dilutions were aliquoted into separate wells of a 96-well plate and 90 μL of water were added to each of those wells. The plate was shaken thoroughly, and 5 μL from each of the plate's wells were transferred into wells of the assay plate. The final volume of wells in the assay plate was 50 μL. All compounds were tested at 10 assay concentrations in the range from 2×10^−6 M to 6×10^−11 M. The final DMSO concentration in the wells of the assay plate was 1% in all cases.

Test [2] has as its target ERK2 (Homo sapiens, UniProt P28482). The test can be described thus: ERK1 and 2 Enzymatic Inhibition Assay (ERK2). Particulars: 10 assay concentrations 2×10^−6 M to 6×10^−11 M, 1% DMSO. Type of test: biochemical. How it is done:
as §1, §2

In test [3] the test system is drug-sensitive cell lines of Table 4. In words: Cell line growth retardation assay, average over sensitive cohort. Type of test: cell-based, Human. Particulars: geometric mean of IC50s over sensitive cohort (Table 4), 6 days growth, read-out: AvgSens IC50. How it is done:
(§3) Cell Line Growth Retardation Assay
(§4) Cells were seeded at densities of 1,000-5,000 cells per well in 48-well tissue culture plates. After a 24 h rest period, cells were treated with compound at 10 μM, 2 μM, 0.4 μM, 0.08 μM, 0.016 μM, and 0.0032 μM. A group of cells were treated with the vehicle in which the compound was prepared and served as a control. The cells were grown in the presence of compounds for 6 days and were counted on day 0 and day 6. All cell counting was performed using a Synentec Cellavista plate imager. […] Growth inhibition was calculated as a ratio of cell population doublings in the presence of compound versus the absence of compound. […] IC50 values for each compound were calculated by fitting curves to data points from each dose-response assay using the Proc NLIN function in SAS for Windows version 9.2 (SAS Institute, Inc.).
(§5) Designation of Sensitivity and Resistant Cohorts and Calculation of Average IC50 Values
(§6) Human cancer cell lines were grouped as “sensitive” or “resistant” to ERK1 inhibition based on whether their growth was retarded by KO-947 (i.e., 1,5,6,8-tetrahydro-6-(phenylmethyl)-3-(4-pyridinyl)-7H-pyrazolo[4,3-g]quinazolin-7-one) and SCH772984 (i.e., (3R)-1-[2-oxo-2-[4-[4-(2-pyrimidinyl)phenyl]-1-piperazinyl]ethyl]-N-[3-(4-pyridinyl)-1H-indazol-5-yl]-3-pyrrolidinecarboxamide) (data not shown; see Table 4). These sensitive and resistant cohorts were interrogated for response to each compound, and IC50s were calculated for each cell line using the same technique described above. Average IC50s for the sensitive and resistant cohorts were calculated as geometric means of the group.

The test system of test [4] is drug-resistant cell lines of Table 4. The test can be described thus: Cell line growth retardation assay, average over resistant cohort. Type of test: cell-based, Human. Particulars: geometric mean of IC50s over resistant cohort (Table 4), 6 days growth, read-out: AvgRes IC50. How it is done:
as §3, §4, §5, §6

Where two headings read alike, the source gives them in different places. Some results are limits rather than exact numbers.

ERK2, sequence (P28482 whole entry): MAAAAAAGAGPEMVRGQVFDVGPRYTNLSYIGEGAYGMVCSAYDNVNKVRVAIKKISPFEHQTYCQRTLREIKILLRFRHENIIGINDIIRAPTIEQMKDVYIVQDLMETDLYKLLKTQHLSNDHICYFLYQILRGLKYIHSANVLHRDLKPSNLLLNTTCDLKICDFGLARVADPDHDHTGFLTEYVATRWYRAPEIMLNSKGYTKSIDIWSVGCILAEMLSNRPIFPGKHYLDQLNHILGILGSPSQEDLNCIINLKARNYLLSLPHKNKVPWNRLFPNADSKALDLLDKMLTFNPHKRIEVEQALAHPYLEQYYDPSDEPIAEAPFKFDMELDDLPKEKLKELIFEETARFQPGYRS
ERK1, sequence (P27361 whole entry): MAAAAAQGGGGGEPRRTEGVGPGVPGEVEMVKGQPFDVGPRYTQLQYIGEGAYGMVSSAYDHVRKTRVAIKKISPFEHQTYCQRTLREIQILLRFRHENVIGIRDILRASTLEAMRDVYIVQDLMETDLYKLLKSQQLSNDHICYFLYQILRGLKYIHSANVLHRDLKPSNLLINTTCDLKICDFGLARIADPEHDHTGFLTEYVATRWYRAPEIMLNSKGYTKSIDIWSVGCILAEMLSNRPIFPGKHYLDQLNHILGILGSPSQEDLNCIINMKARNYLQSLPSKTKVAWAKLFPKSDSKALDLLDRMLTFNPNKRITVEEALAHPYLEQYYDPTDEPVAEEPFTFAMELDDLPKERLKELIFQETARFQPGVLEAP

With `CC(NC(=O)c1ncc(-c2c[nH]c3ncc(N4C[C@@H](C)O[C@@H](C)C4)cc23)cn1)c1ccccc1` (stereo in doubt) [Compound 36, 5-(5-((2R,6S)-2,6-dimethylmorpholino)-1H-pyrrolo[2,3-b]pyridin-3-yl)-N—((R)-1-phenylethyl)pyrimidine-2-carboxamide], the Kd in test [1] is ≤ 0.01 µM; in test [2], 0.011 to 0.1 µM. Also, the IC50 is > 0.5 µM in test [3] (Homo sapiens, 144 h) and > 0.5 µM in test [4] (Homo sapiens, 144 h).

Consider `CC(NC(=O)c1ncc(-c2c[nH]c3ncc(N4CCO[C@@H](C)C4)cc23)cn1)c1ccccc1` (stereo in doubt) [Compound 37, 5-(5-((S)-2-methylmorpholino)-1H-pyrrolo[2,3-b]pyridin-3-yl)-N—((R)-1-phenylethyl)pyrimidine-2-carboxamide], for which the Kd is ≤ 0.01 µM in test [1] and 0.011 to 0.1 µM in test [2]. Further, the IC50 is > 0.5 µM in test [3] (Homo sapiens, 144 h) and > 0.5 µM in test [4] (Homo sapiens, 144 h).

As to `CC(NC(=O)c1ncc(-c2c[nH]c3ncc(N4CCOC(C)(C)C4)cc23)cn1)c1ccccc1` (stereo in doubt) [Compound 38, (R)-5-(5-(2,2-dimethylmorpholino)-1H-pyrrolo[2,3-b]pyridin-3-yl)-N-(1-phenylethyl)pyrimidine-2-carboxamide], the Kd in test [1] and in test [2] was 0.011 to 0.1 µM each time. The IC50 in test [3] (Homo sapiens, 144 h) was > 0.5 µM; in test [4] (Homo sapiens, 144 h) it was > 0.5 µM.

In the case of `Cc1cc(-c2cnc3[nH]cc(-c4cnc(C(=O)NC(C)c5ccccc5)nc4)c3c2)ccn1` (stereo in doubt) [Compound 40, (R)-5-(5-(2-methylpyridin-4-yl)-1H-pyrrolo[2,3-b]pyridin-3-yl)-N-(1-phenylethyl)pyrimidine-2-carboxamide], the Kd in test [1] and in test [2] was ≤ 0.01 µM each time. For the same molecule, the IC50 in test [3] (Homo sapiens, 144 h) was ≤ 0.25 µM; in test [4] (Homo sapiens, 144 h), > 0.5 µM.

Turning to `COc1cc(-c2cnc3[nH]cc(-c4cnc(C(=O)NC(C)c5ccccc5)nc4)c3c2)ccn1` (stereo in doubt) [Compound 41, (R)-5-(5-(2-methoxypyridin-4-yl)-1H-pyrrolo[2,3-b]pyridin-3-yl)-N-(1-phenylethyl)pyrimidine-2-carboxamide], the Kd in test [1] and in test [2] was ≤ 0.01 µM throughout. The IC50 was ≤ 0.25 µM in test [3] (Homo sapiens, 144 h) and > 0.5 µM in test [4] (Homo sapiens, 144 h).

Take `CC(NC(=O)c1ncc(-c2c[nH]c3ncc(N4CC5(COC5)C4)cc23)cn1)c1ccccc1` (stereo in doubt) [Compound 42, (R)-5-(5-(2-oxa-6-azaspiro[3.3]heptan-6-yl)-1H-pyrrolo[2,3-b]pyridin-3-yl)-N-(1-phenylethyl)pyrimidine-2-carboxamide]: the Kd in test [1] and in test [2] was ≤ 0.01 µM throughout. For the same molecule, the IC50 in test [3] (Homo sapiens, 144 h) was > 0.5 µM; in test [4] (Homo sapiens, 144 h), > 0.5 µM.

Consider `CC(NC(=O)c1ncc(-c2c[nH]c3ncc(N4CCC45COC5)cc23)cn1)c1ccccc1` (stereo in doubt) [Compound 43, (R)-5-(5-(6-oxa-1-azaspiro[3.3]heptan-6-yl)-1H-pyrrolo[2,3-b]pyridin-3-yl)-N-(1-phenylethyl)pyrimidine-2-carboxamide], for which the equilibrium dissociation constant (Kd) in test [1] was 0.011 to 0.1 µM; in test [2], > 0.1 µM. Also, the IC50 was > 0.5 µM in test [3] (Homo sapiens, 144 h) and > 0.5 µM in test [4] (Homo sapiens, 144 h).

In the case of `O=C(NC(c1ccccc1)C(F)(F)F)c1ncc(-c2c[nH]c3ncc(N4CCOCC4)cc23)cn1` (stereo in doubt) [Compound 47, (S)-5-(5-morpholino-1H-pyrrolo[2,3-b]pyridin-3-yl)-N-(2,2,2-trifluoro-1-phenylethyl)pyrimidine-2-carboxamide], the Kd in test [1] and in test [2] was ≤ 0.01 µM in each case. For the same molecule, the IC50 was 0.251 to 0.5 µM in test [3] (Homo sapiens, 144 h) and > 0.5 µM in test [4] (Homo sapiens, 144 h).

For `O=C(NC(CO)c1ccccc1)c1ncc(-c2c[nH]c3ncc(N4CCOCC4)cc23)cn1` (stereo in doubt) [Compound 53, (S)—N-(2-hydroxy-1-phenylethyl)-5-(5-morpholino-1H-pyrrolo[2,3-b]pyridin-3-yl)pyrimidine-2-carboxamide], the equilibrium dissociation constant (Kd) in test [1] and in test [2] was ≤ 0.01 µM in each case. In addition, the IC50 is > 0.5 µM in test [3] (Homo sapiens, 144 h) and > 0.5 µM in test [4] (Homo sapiens, 144 h).

`O=C(Nc1ccccc1)c1ncc(-c2c[nH]c3ncc(N4CCOCC4)cc23)cn1` [Compound 23, 5-(5-morpholino-1H-pyrrolo[2,3-b]pyridin-3-yl)-N-phenylpyrimidine-2-carboxamide]: the Kd in test [1] and in test [2] was > 0.1 µM throughout.

With `C[C@@H](Cc1ccccc1)NC(=O)c1ncc(-c2c[nH]c3ncc(N4CCOCC4)cc23)cn1` [Compound 30, (S)-5-(5-morpholino-1H-pyrrolo[2,3-b]pyridin-3-yl)-N-(1-phenylpropan-2-yl)pyrimidine-2-carboxamide], the Kd in test [1] and in test [2] was > 0.1 µM in each case.

As to `C[C@@H](CNC(=O)c1ncc(-c2c[nH]c3ncc(N4CCOCC4)cc23)cn1)c1ccccc1` [Compound 33], the Kd in test [1] and in test [2] was 0.011 to 0.1 µM each time.

On to `C[C@H](NC(=O)c1ncc(-c2c[nH]c3ncc(N4CCOCC4)cc23)cn1)c1ccccc1C#N` [Compound 48, (S)—N-(1-(2-cyanophenyl)ethyl)-5-(5-morpholino-1H-pyrrolo[2,3-b]pyridin-3-yl)pyrimidine-2-carboxamide], for which the Kd in test [1] was ≤ 0.01 µM; in test [2], 0.011 to 0.1 µM.

Take `c1ccc([C@@H]2COC(c3ncc(-c4c[nH]c5ncc(N6CCOCC6)cc45)cn3)=N2)cc1` [Compound 52, (R)-4-(3-(2-(4-phenyl-4,5-dihydrooxazol-2-yl)pyrimidin-5-yl)-1H-pyrrolo[2,3-b]pyridin-5-yl)morpholine]: the IC50 in test [3] and in test [4] was > 0.5 µM each time.

Regarding `c1ccc([C@@H]2CN=C(c3ncc(-c4c[nH]c5ncc(N6CCOCC6)cc45)cn3)O2)cc1` [Compound 54, (R)-4-(3-(2-(5-phenyl-4,5-dihydrooxazol-2-yl)pyrimidin-5-yl)-1H-pyrrolo[2,3-b]pyridin-5-yl)morpholine], the half-inhibitory concentration (IC50) in test [4] was > 0.5 µM.

In the case of `O=C(NCCc1ccccc1F)c1ncc(-c2c[nH]c3ncc(N4CCOCC4)cc23)cn1` [Compound 58, N-(2-fluorophenethyl)-5-(5-morpholino-1H-pyrrolo[2,3-b]pyridin-3-yl)pyrimidine-2-carboxamide], the Kd in test [1] and in test [2] was ≤ 0.01 µM in each case.

For `O=C(NCCc1ccccc1C(F)(F)F)c1ncc(-c2c[nH]c3ncc(N4CCOCC4)cc23)cn1` [Compound 59, 5-(5-morpholino-1H-pyrrolo[2,3-b]pyridin-3-yl)-N-(2-(trifluoromethyl)phenethyl)pyrimidine-2-carboxamide], the dissociation constant Kd in test [1] is 0.011 to 0.1 µM; in test [2] it was ≤ 0.01 µM.

With `O=C(NCCc1cccc(F)c1)c1ncc(-c2c[nH]c3ncc(N4CCOCC4)cc23)cn1` [Compound 63, N-(3-fluorophenethyl)-5-(5-morpholino-1H-pyrrolo[2,3-b]pyridin-3-yl)pyrimidine-2-carboxamide], the Kd in test [1] and in test [2] was 0.011 to 0.1 µM in each case.

Take `O=C(NCCc1cccc(C(F)(F)F)c1)c1ncc(-c2c[nH]c3ncc(N4CCOCC4)cc23)cn1` [Compound 64, 5-(5-morpholino-1H-pyrrolo[2,3-b]pyridin-3-yl)-N-(3-(trifluoromethyl)phenethyl)pyrimidine-2-carboxamide]: the Kd in test [1] and in test [2] was 0.011 to 0.1 µM throughout.

As for `C[C@H](NC(=O)c1ncc(-c2c[nH]c3ncc(NCCO)cc23)cn1)c1ccccc1` [Compound 68], the Kd in test [1] and in test [2] was 0.011 to 0.1 µM throughout.

What is called Kd is the constant that tells how readily two partners part at equilibrium. High values mean lower affinity, low ones higher affinity. Broadly, the IC50 is the concentration that gives 50% inhibition.

Values taken from patent US12428416B2 (California Institute of Technology, priority 2018, dated 2025).
